Measurements published in patent US20240271071A1, “METHOD AND APPARATUS FOR FORMING A MICROFLUIDIC GEL STRUCTURE” (Mimetas B.V., priority 2021, published 2024).

System: HCAEC and HCASMC co-culture
Experiment: Visualising contractile lumen (vasodilation/vasoconstriction) in coronary artery tubule model
Format: cell-based, Human
Conditions: Sildenafil at day 6, 5 μM, 50 μM and 500 μM, after Norepinephrine at day 3; phase contrast images, 30 minutes post-exposure
Method: For this example, a 3-lane OrganoPlate® ([…]) with 400 μm wide lanes was used, which comprises a microfluidic network of 3 lanes and two capillary pressure barriers. The network was filled with 50 μL HBSS in the observation window (the point where the 3 lanes converge) to provide additional humidity to the plate. The central lane was filled at the inlet with a neutralised bovine type I atelocollagen solution PureCol® EZ Gel 5 mg/ml (Advanced BioMatrix); the solution was pinned at the capillary pressure barrier leaving a free-standing meniscus at the air-liquid interface in the upper and lower lane. A 30 μL solution of HBSS was introduced into the inlet of the centre lane, and a 1 μL solution of 5% FBS in PBS was introduced at the hole of the outlet of the centre lane forming a dome shape as in Example 1. […] After 1 minute 50 μL of HBSS was added to the outlet and the OrganoPlate was placed in a humidity-controlled environment at 37° C. and 5% CO2 for 1 hour. For cell seeding, 1 μL of a cell suspension containing 10,000 cell/μL Primary Human Coronary Artery Endothelial Cells (HCAEC) and 2,500 cell/μL Primary Human Coronary Artery Smooth Muscle Cells (HCASMC) was seeded in the outlet of the middle lane. The cell suspension was driven into the microfluidic network by means of Laplace pressure due to the surface tension of the cell pellet. Cells were left to attach for between 2-6 hours. […]

For `CCCc1nn(C)c2c(=O)[nH]c(-c3cc(S(=O)(=O)N4CCN(C)CC4)ccc3OCC)nc12` [Sildenafil], the “contraction of the tubule / change of lumen diameter upon exposure to a stimulus” value was “contraction”.
